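Five concentrations, 48 hours, 96-well plates. GI50: concentration for 50% inhibition of growth.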 Activity calls are given as the source filed them. No stated cut-off is given here; in the data, active = GI50 up to about 1.1 µM and inactive = higher.
Experiments:
Experiment in all cases: NCI anticancer screen, dose series, 48 h
MDA-MB-231 = system: MDA-MB-231
CAKI-1 = system: CAKI-1
IGROV-1 = system: IGROV-1
HCT-116 = system: HCT-116
LOX IMVI = system: LOX IMVI
COLO 205 = system: COLO 205
SR = system: SR
Hs-578T = system: Hs-578T
DU-145 = system: DU-145
RXF 393 = system: RXF 393
SW-620 = system: SW-620
KM12 = system: KM12
SNB-19 = system: SNB-19
UACC-257 = system: UACC-257
ACHN = system: ACHN
NCI-H522 = system: NCI-H522
Malme-3M = system: Malme-3M
SN12C = system: SN12C
A549 = system: A549

Compound | GI50 (MDA-MB-231) | GI50 (CAKI-1) | GI50 (IGROV-1) | GI50 (HCT-116) | GI50 (LOX IMVI) | GI50 (COLO 205) | GI50 (SR) | GI50 (Hs-578T) | GI50 (DU-145) | GI50 (RXF 393) | GI50 (SW-620) | GI50 (KM12) | GI50 (SNB-19) | GI50 (UACC-257) | GI50 (ACHN) | GI50 (NCI-H522) | GI50 (Malme-3M) | GI50 (SN12C) | GI50 (A549)
CSC1=C(C(=O)Nc2ccc(C)cc2)C(N)=NC1=O | > 100 µM (inactive) | > 100 µM (inactive) | > 100 µM (inactive) | > 100 µM (inactive) | > 100 µM (inactive) | > 100 µM (inactive) | 81.5 µM (inactive) | > 100 µM (inactive) | > 100 µM (inactive) | > 100 µM (inactive) | > 100 µM (inactive) | > 100 µM (inactive) | > 100 µM (inactive) | > 100 µM (inactive) | > 100 µM (inactive) | – | – | – | –
C/C(=N/NC(=S)N1CCCCCC1)c1cccc(/C(C)=N\NC(=S)N2CCCCCC2)n1 | 1.7 µM (inactive) | – | 1.49 µM (inactive) | 1.66 µM (inactive) | 1.72 µM (inactive) | 1.47 µM (inactive) | 2.38 µM (inactive) | 5.2 µM (inactive) | 2.29 µM (inactive) | 1.6 µM (inactive) | 1.11 µM (active) | 1.63 µM (inactive) | 3.27 µM (inactive) | 1.58 µM (inactive) | 1.48 µM (inactive) | 2.62 µM (inactive) | 0.938 µM (active) | 2.09 µM (inactive) | 2.07 µM (inactive)
Cc1cc(=O)[nH]c(-n2[nH]c3c(c2=O)CCCC3)n1 | 67.9 µM (inactive) | 70.1 µM (inactive) | 97.3 µM (inactive) | 41.9 µM (inactive) | – | 88.9 µM (inactive) | 63.1 µM (inactive) | 92.9 µM (inactive) | > 100 µM (inactive) | 14.3 µM (inactive) | 56 µM (inactive) | > 100 µM (inactive) | > 100 µM (inactive) | 66.5 µM (inactive) | 49.4 µM (inactive) | > 100 µM (inactive) | > 100 µM (inactive) | 77.8 µM (inactive) | 72.1 µM (inactive)
Cc1ccc2c(c1)CC1(Cc3cccc(C)c3C1=O)C2=O (configuration not stated) | 19.4 µM (inactive) | – | > 100 µM (inactive) | 64 µM (inactive) | > 10 µM (inactive) | 85.3 µM (inactive) | 79.8 µM (inactive) | 96.8 µM (inactive) | > 100 µM (inactive) | > 100 µM (inactive) | > 100 µM (inactive) | – | – | > 100 µM (inactive) | > 100 µM (inactive) | 82.6 µM (inactive) | 85.5 µM (inactive) | > 100 µM (inactive) | > 100 µM (inactive)
CC1(C)OC2[C@@H](CO[C@@]3([C@H]4OC(C)(C)O[C@@H]4CO)OC(C)(C)O[C@@H]23)O1 (some centres not stated) | > 100 µM (inactive) | – | > 100 µM (inactive) | > 100 µM (inactive) | > 100 µM (inactive) | > 100 µM (inactive) | > 100 µM (inactive) | > 100 µM (inactive) | > 100 µM (inactive) | > 100 µM (inactive) | > 100 µM (inactive) | > 100 µM (inactive) | > 100 µM (inactive) | – | > 100 µM (inactive) | > 100 µM (inactive) | > 100 µM (inactive) | > 100 µM (inactive) | > 100 µM (inactive)
Cc1cc(C)n(CN(Cn2nc(C)cc2C)c2ccc(N(Cn3nc(C)cc3C)Cn3nc(C)cc3C)cc2)n1 | 45.7 µM (inactive) | 26.1 µM (inactive) | 31.6 µM (inactive) | 17.5 µM (inactive) | – | 17.7 µM (inactive) | 30.9 µM (inactive) | 18.2 µM (inactive) | 25.9 µM (inactive) | 20 µM (inactive) | 16.6 µM (inactive) | 24.2 µM (inactive) | 24 µM (inactive) | 18.6 µM (inactive) | 17.3 µM (inactive) | 20.2 µM (inactive) | 22.3 µM (inactive) | 27.4 µM (inactive) | 28 µM (inactive)
Cn1/c(=N\S(=O)(=O)c2ccccc2)[nH]c2ccccc21 | > 100 µM (inactive) | > 100 µM (inactive) | > 100 µM (inactive) | > 100 µM (inactive) | – | > 100 µM (inactive) | > 100 µM (inactive) | > 100 µM (inactive) | > 100 µM (inactive) | > 100 µM (inactive) | > 100 µM (inactive) | > 100 µM (inactive) | > 100 µM (inactive) | > 100 µM (inactive) | > 100 µM (inactive) | > 100 µM (inactive) | > 100 µM (inactive) | > 100 µM (inactive) | > 100 µM (inactive)
C1=N/CCNCCNCC/N=C/c2ccccc2OCc2cccc(n2)COc2ccccc2/1 | 57.9 µM (inactive) | > 100 µM (inactive) | 52.6 µM (inactive) | 61 µM (inactive) | – | > 100 µM (inactive) | 19.5 µM (inactive) | 55.3 µM (inactive) | 56.9 µM (inactive) | 30.3 µM (inactive) | 36.2 µM (inactive) | 48.5 µM (inactive) | 52.5 µM (inactive) | 53.7 µM (inactive) | 28.6 µM (inactive) | 37.8 µM (inactive) | 61.8 µM (inactive) | 43.8 µM (inactive) | > 100 µM (inactive)
c1ccc2c(c1)ncn2C1CCCCO1 (configuration not stated) | > 100 µM (inactive) | – | > 100 µM (inactive) | > 100 µM (inactive) | > 100 µM (inactive) | > 100 µM (inactive) | > 100 µM (inactive) | > 100 µM (inactive) | > 100 µM (inactive) | > 100 µM (inactive) | > 100 µM (inactive) | > 100 µM (inactive) | > 100 µM (inactive) | > 100 µM (inactive) | > 100 µM (inactive) | > 100 µM (inactive) | > 100 µM (inactive) | > 100 µM (inactive) | > 100 µM (inactive)
Cc1cc(C)n(C(=O)CSc2nc3ccc(I)cc3c(=O)n2Cc2ccccc2)n1 | 23.3 µM (inactive) | 4.63 µM (inactive) | 20 µM (inactive) | 57 µM (inactive) | > 100 µM (inactive) | 59.7 µM (inactive) | > 100 µM (inactive) | 20 µM (inactive) | 42 µM (inactive) | 26.9 µM (inactive) | 87.1 µM (inactive) | 50.2 µM (inactive) | 43.1 µM (inactive) | 33.9 µM (inactive) | 44.5 µM (inactive) | 20.1 µM (inactive) | – | 51.8 µM (inactive) | 41 µM (inactive)
COC(=O)C12OC3CO[Si](C(C)C)(C(C)C)O[Si](C(C)C)(C(C)C)OC3C1Oc1nc(=O)ccn12 (configuration not stated) | 15.5 µM (inactive) | 17.7 µM (inactive) | 11.6 µM (inactive) | 16.1 µM (inactive) | 17.4 µM (inactive) | 18.7 µM (inactive) | 15 µM (inactive) | < 0.01 µM (active) | 18.5 µM (inactive) | 16.6 µM (inactive) | 16 µM (inactive) | 15.7 µM (inactive) | 17.3 µM (inactive) | 15.6 µM (inactive) | 17.9 µM (inactive) | – | 14.8 µM (inactive) | 17.9 µM (inactive) | 15.2 µM (inactive)

From ChEMBL document CHEMBL1201862, “PubChem BioAssay data set” (2004)
